pIC50: −log10 of the molar value.

Experimental findings from patent US8440710B2, “HSL inhibitors useful in the treatment of diabetes” (Hoffmann-La Roche Inc., priority 2009, dated 2013) are described below.

The test concerns the target T1, human HSL (Homo sapiens, UniProt Q05469).
T1 construct: generate a full length human HSL ORF with a 3′-His6 tag; made in house; host or cells: High 5 insect cells (baculovirus, pFast-BAC)
T1 sequence (Q05469 1-1076): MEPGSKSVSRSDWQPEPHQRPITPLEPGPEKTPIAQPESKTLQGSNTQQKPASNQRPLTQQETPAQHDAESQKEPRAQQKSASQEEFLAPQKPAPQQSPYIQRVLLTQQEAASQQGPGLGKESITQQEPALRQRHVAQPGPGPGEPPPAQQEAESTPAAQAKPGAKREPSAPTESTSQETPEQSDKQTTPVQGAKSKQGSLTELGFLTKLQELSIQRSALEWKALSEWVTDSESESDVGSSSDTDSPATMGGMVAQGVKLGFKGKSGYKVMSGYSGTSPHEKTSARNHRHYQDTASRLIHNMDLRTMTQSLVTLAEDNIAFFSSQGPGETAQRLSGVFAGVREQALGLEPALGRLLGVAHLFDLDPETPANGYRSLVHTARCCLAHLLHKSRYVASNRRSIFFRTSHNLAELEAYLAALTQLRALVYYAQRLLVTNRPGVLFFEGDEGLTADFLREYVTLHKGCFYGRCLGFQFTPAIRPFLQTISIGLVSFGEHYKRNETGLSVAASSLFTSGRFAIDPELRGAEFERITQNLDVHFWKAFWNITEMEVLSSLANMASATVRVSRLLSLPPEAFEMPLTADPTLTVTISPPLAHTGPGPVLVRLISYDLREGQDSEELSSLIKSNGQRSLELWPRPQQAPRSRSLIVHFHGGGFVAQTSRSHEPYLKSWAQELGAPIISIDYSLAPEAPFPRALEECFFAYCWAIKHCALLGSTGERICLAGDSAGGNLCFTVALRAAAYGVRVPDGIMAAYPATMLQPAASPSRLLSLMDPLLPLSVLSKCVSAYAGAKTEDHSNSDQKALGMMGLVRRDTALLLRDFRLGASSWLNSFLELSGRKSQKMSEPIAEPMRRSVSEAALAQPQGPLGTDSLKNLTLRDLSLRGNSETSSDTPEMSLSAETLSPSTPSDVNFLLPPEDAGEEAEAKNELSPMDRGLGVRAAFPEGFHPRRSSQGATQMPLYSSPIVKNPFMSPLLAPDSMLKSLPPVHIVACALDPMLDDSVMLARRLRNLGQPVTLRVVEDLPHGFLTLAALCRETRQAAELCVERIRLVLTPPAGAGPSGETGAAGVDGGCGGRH
The test can be described thus: Human Hormone-Sensitive Lipase (HSL) enzyme inhibition assay (colorimetric, DMPT substrate). It is filed as biochemical. Conditions: human full length HSL-His6, 2,3-dimercapto-1-propanol tributyrate substrate, 37° C. 20 minutes, absorbance at 405 nm; read-out: HSL hum IC50. The protocol: Production of Human Full Length Hormone Sensitive Lipase-His^6:
1) Cloning: cDNA was prepared from commercial human brain polyA+ RNA and used as a template in overlapping PCR to generate a full length human HSL ORF with a 3′-His6 tag. This full length insert was cloned into the pFast-BAC vector and the DNA-sequence of several single clones was verified. DNA from a correct full length clone with the 3′His6 tag was used to transform the E. coli strain DH10BAC. Resulting bacmid DNA was used to generate a titered baculovirus stock for protein generation. The sequence of the encoded HSL conforms to Swissprot entry Q05469, with the additional C-terminal His6-tag. 2) Protein purification: Culture: 5.5 L, High 5 cells expressing human full length HSL-His^6, 48 hr., containing 25 μM E-64. Cell count: […], 90% viable. Cells were thawed. On ice, cells were suspended in Base Buffer containing 10% glycerol, 25 mM Tris-Cl, 300 mM NaCl, 10 mM imidazole, 10 mM 2-mercaptoethanol, 2 μg pepstatin/ml, 2 μg leupeptin/ml, 2 μg antipain/ml, pH 8.0 at 4° C. in a final volume of 475 ml with 3.75×10^7 cells/ml. […] was done at 3×30 sec., Lubrol PX was added to 0.2% final concentration followed by stirring for 15 min. at 4° C. and centrifugation at 25 k×g, 60 min., 4° C. Soluble proteins were mixed with 60 ml of pre-washed and equilibrated Ni-NTA Agarose (Qiagen 30210) followed by tumbling end-over-end, 45 min., 4° C., centrifugation 1000 rpm 5 min and letting resin settle 5 min. Supernatant was removed, the resin washed in the centrifuge vessel using 5 volumes of Base Buffer containing 0.2% Lubrol PX. Centrifugation was done again, then the supernatant discarded. The resin was poured onto a 0.8 μm membrane in a disposable filter unit (Nalge 450-0080), and washed with 5 volumes of Base Buffer containing 0.2% Lubrol PX. It was then washed with 30 volumes of Base Buffer containing 60 mM imidazole pH 7.5 at 4° C. The protein was eluated with 5 volumes of 25 mM Tris-Cl, 300 mM NaCl, 200 mM imidazole, 10 mM 2-mercaptoethanol, pH 7.5 at 4° C. by tumbling resin with buffer end-over-end, 30 min., 4° C. The resin was captured on a 0.2 μm membrane disposable filter unit (Millipore SCGP U02 RE) and the eluate collected in the reservoir. The eluate was concentrated using a 30 k MWCO centrifugal filter device (Sartorius Vivascience Vivacell 100, VC1022), to 20 ml. It was then dialyzed overnight at 4° C., two times against 2 L of 10% glycerol, 25 mM Tris-Cl, 300 mM NaCl, 0.2 mM EDTA, 0.2 mM DTT, pH 7.5 at 4° C. The protein was filtered using a 0.22 μm disposable filter unit (Millipore SCGP00525). The protein concentration was calculated from absorbance at 280 nm, using 280=0.67 cm-1 mg-1. Yield was 235 mg, total. The protein was stored at −80° C. Human Hormone-Sensitive Lipase (HSL) Enzyme Inhibition Assay:
HSL enzyme activity was measured by a colorimetric assay using 2,3-dimercapto-1-propanol tributyrate (Aldrich, St. Louis, Mo.) as a substrate. Typically, 1.5 mM 2,3-dimercapto-1-propanol tributyrate (DMPT) in 100 mM MOPS, pH 7.2, 0.2 mg/ml fatty acid-free BSA was prepared by sonication at 4° C. to homogenous suspension. Test compounds (2 mM stock in DMSO) were diluted 3 fold in series in DMSO. Compound solutions were diluted 24 fold in 1.5 mM DMPT containing solution and 18 ul per well was added to 384-well microplates (Corning Costar). Twelve microliters per well of human HSL (15 ug/ml) was added and the reaction mixture was incubated at 37° C. for 20 minutes. Six microliters of 12 mM dithio-bis-(2-nitrobenzoic acid) (DTNB) in DMSO plus 1.2% SDS and 0.6% Triton X-100 were added and the mixture was incubated at room temperature for 15 minutes. Product production was monitored by reading absorbance at 405 nm on an Envision Reader (PerkinElmer Life and Analytical Sciences, Shelton, Conn.).
In the case of `C[C@]1(O)CC[C@]2(CCN(c3ccc(CC(F)(F)F)cc3)C2=O)CC1` [Example 77, (5α,8α)-8-Hydroxy-8-methyl-2-[4-(2,2,2-trifluoro-ethyl)-phenyl]-2-aza-spiro[4.5]decan-1-one], the pIC50 is 7.30.
With `O=C1N(c2ccc(OCC(F)(F)F)cc2)CC[C@]12CC[C@@](O)(COc1cccc(F)c1)CC2` [Example 262, (5α,8α)-8-(3-Fluoro-phenoxymethyl)-8-hydroxy-2-[4-(2,2,2-trifluoro-ethoxy)-phenyl]-2-aza-spiro[4.5]decan-1-one], the pIC50 was 7.15.
The same measure for `CC[C@]1(O)CC[C@]2(CCN(c3ccc(OC(C)C(F)(F)F)cc3)C2=O)CC1` (stereo partly drawn) [Example 165, (5α,8α)-8-Ethyl-8-hydroxy-2-[4-(2,2,2-trifluoro-1-methyl-ethoxy)-phenyl]-2-aza-spiro[4.5]decan-1-one]: 7.70.
The same measure for `CCc1ccc(N2CC[C@]3(CC[C@H](O)CC3)C2=O)cc1` [Example 32, (5α,8α)-2-(4-Ethyl-phenyl)-8-hydroxy-2-aza-spiro[4.5]decan-1-one]: 6.05; for `CC[C@]1(O)CC[C@]2(CCN(c3ccc(O[C@@H](C)C(F)(F)F)cc3)C2=O)CC1` [Example 165a, (5α,8α)-8-Ethyl-8-hydroxy-2-[4-((S)-2,2,2-trifluoro-1-methyl-ethoxy)-phenyl]-2-aza-spiro[4.5]decan-1-one]: 7.70.
Under `CCc1ccc(N2CC[C@]3(CC[C@](O)(COCC(F)F)CC3)C2=O)cc1` [Example 264, (5α,8β)-8-(2,2-Difluoro-ethoxymethyl)-2-(4-ethyl-phenyl)-8-hydroxy-2-aza-spiro[4.5]decan-1-one] stands 6.70; under `CC(C)SC[C@]1(O)CC[C@]2(CCN(c3ccc(O[C@@H](C)C(F)(F)F)nc3)C2=O)CC1` [Example 320, (5α,8α)-8-Hydroxy-8-isopropylsulfanylmethyl-2-[6-((S)-2,2,2-trifluoro-1-methyl-ethoxy)-pyridin-3-yl]-2-aza-spiro[4.5]decan-1-one], 8.00; under `CCC[C@]1(O)CC[C@]2(CCN(c3ccc(C(O)C(C)(F)F)cc3)C2=O)CC1` (stereo partly drawn) [Example 192, (5α,8α)-2-(4-(2,2-difluoro-1-hydroxypropyl)phenyl)-8-hydroxy-8-propyl-2-aza-spiro[4.5]decan-1-one], 7.30.
As to `O=C1N(c2ccc(OC(F)(F)F)cc2)CC[C@]12CC[C@@](O)(C1CC1)CC2` [Example 70, (5α,8α)-8-Cyclopropyl-8-hydroxy-2-(4-trifluoromethoxy-phenyl)-2-aza-spiro[4.5]decan-1-one], the pIC50 was 6.89.
Under `CCSC[C@]1(O)CC[C@]2(CCN(c3ccc(OCC(F)(F)F)cc3)C2=O)CC1` [Example 261, (5α,8α)-8-Ethylsulfanylmethyl-8-hydroxy-2-[4-(2,2,2-trifluoro-ethoxy)-phenyl]-2-aza-spiro[4.5]decan-1-one] stands 8.00.
Under `CCCC[C@]1(O)CC[C@]2(CCN(c3ccc(CCOC)cc3)C2=O)CC1` [Example 129, (5α,8α)-8-Butyl-8-hydroxy-2-[4-(2-methoxy-ethyl)-phenyl]-2-aza-spiro[4.5]decan-1-one] stands 7.70.
Under `CCCOC[C@]1(O)CC[C@@]2(CCN(c3ccc(OCC(F)(F)F)nc3)C2=O)CC1` [Example 266, (5α,8β)-8-Hydroxy-8-propoxymethyl-2-[6-(2,2,2-trifluoro-ethoxy)-pyridin-3-yl]-2-aza-spiro[4.5]decan-1-one] stands 6.43; under `C[C@H](Oc1ccc(N2CC[C@]3(CC[C@](O)(COCC(F)(F)F)CC3)C2=O)cc1)C(F)(F)F` [Example 282, (5α,8β)-8-Hydroxy-8-(2,2,2-trifluoro-ethoxymethyl)-2-[4-((S)-2,2,2-trifluoro-1-methyl-ethoxy)-phenyl]-2-aza-spiro[4.5]decan-1-one], 6.40.
